Values of other authors in patent US7402323B2, “Compositions and methods for treating skin conditions” (AkPharma, Inc., priority 2002, dated 2008).

Legend:
stratum corneum = settings: normal thickness 14 cells
[1] = tested on: cultured neurons and astrocytes; settings: compared with control cultures or with cultures supplemented with calcium or glycerophosphate alone

CC1=C(/C=C/C(C)=C/C=C/C(C)=C/C(=O)O)C(C)(C)CCC1 [Retinoic acid]
stratum corneum thickness after treatment (stratum corneum): 5 cells

O=P([O-])([O-])OCC(O)CO.[Ca+2] (stereo not drawn) [calcium glycerophosphate, 1,2,3-propanetriol, mono(dihydrogen phosphate) calcium salt (1:1)]
number of cells in supplemented cultures [1]: more cells | solubility in water: highly soluble
